Values belong to the compound of their own block, whether it stands above or below them.
Columns and labels:
[1] = target: Programmed cell death protein 1 (Homo sapiens, UniProt Q15116); assay: Inhibition of His-tagged PD-L1 binding to PD-1-Ig (unknown origin) preincubated with PD-L1 for 15 mins followed by PD-1-Ig addition measured after 15 mins by HTRF binding assay
eIF-2-alpha kinase GCN2 = eIF-2-alpha kinase GCN2 (Homo sapiens, UniProt Q9P2K8); assay: Inhibition of GCN2 (unknown origin) using GFP--fused eIF2alpha as substrate preincubated for 20 mins followed by substrate and ATP addition measured after 90 mins by TR-FRET assay
eIF-2-alpha kinase GCN2, sequence (Q9P2K8 whole entry, the tested form may be a part): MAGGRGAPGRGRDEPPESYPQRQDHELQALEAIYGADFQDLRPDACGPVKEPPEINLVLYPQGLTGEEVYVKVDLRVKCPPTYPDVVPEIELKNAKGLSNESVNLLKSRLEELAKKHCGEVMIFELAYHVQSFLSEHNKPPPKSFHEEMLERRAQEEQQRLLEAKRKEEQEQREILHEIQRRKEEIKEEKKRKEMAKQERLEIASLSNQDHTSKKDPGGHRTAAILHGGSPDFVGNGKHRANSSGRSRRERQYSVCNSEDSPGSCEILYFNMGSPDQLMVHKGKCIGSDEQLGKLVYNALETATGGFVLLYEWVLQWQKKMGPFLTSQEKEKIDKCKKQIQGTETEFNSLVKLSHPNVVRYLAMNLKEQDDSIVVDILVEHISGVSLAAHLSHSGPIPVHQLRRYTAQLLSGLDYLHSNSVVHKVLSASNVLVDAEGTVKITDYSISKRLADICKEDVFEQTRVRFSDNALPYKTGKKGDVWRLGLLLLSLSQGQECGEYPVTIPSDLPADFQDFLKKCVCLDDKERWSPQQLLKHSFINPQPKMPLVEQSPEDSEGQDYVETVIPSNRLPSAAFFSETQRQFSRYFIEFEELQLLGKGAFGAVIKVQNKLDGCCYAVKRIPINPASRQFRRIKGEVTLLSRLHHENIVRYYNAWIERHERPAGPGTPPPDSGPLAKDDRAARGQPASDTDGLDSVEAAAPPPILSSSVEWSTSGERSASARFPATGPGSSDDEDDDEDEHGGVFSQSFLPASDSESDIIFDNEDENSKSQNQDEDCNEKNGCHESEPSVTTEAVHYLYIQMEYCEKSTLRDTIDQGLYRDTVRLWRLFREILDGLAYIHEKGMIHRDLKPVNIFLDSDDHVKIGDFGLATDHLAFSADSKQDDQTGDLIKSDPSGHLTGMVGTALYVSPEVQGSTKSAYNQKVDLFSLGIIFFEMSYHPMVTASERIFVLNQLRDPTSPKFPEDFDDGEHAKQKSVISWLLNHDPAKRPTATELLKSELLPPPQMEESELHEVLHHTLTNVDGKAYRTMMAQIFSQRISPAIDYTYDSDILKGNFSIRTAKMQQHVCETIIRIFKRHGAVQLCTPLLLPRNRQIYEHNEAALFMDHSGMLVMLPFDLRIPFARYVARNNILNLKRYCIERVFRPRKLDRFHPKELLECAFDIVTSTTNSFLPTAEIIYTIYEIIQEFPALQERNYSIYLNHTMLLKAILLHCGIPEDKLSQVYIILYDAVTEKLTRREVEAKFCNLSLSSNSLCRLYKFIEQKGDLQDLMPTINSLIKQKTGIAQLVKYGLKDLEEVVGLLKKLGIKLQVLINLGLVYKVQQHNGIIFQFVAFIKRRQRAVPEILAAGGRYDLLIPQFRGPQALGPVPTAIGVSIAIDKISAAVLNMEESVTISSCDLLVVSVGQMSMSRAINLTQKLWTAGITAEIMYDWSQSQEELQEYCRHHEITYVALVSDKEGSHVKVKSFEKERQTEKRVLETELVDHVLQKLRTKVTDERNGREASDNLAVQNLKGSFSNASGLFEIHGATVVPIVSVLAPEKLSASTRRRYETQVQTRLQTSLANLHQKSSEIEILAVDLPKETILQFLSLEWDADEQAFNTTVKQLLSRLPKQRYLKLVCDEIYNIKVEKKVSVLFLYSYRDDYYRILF

[2] = target: Tyrosine-protein kinase SYK (Homo sapiens, UniProt P43405); assay: Inhibition of N-terminal GST-tagged human SYK expressed in baculovirus infected Sf9 insect cells using Biotin-Aha-Aha-KEDPDYEWPSAKK as substrate after 90 mins by flash plate assay
[3] = target: Mitogen-activated protein kinase kinase kinase kinase 1 (Homo sapiens, UniProt Q92918); assay: Inhibition of N-terminal GST-tagged human HPK1 (1 to 346 residues) after 30 mins in presence of ATP by indirect ELISA
Mitogen-activated protein kinase kinase kinase kinase 1, sequence (Q92918 whole entry, the tested form may be a part): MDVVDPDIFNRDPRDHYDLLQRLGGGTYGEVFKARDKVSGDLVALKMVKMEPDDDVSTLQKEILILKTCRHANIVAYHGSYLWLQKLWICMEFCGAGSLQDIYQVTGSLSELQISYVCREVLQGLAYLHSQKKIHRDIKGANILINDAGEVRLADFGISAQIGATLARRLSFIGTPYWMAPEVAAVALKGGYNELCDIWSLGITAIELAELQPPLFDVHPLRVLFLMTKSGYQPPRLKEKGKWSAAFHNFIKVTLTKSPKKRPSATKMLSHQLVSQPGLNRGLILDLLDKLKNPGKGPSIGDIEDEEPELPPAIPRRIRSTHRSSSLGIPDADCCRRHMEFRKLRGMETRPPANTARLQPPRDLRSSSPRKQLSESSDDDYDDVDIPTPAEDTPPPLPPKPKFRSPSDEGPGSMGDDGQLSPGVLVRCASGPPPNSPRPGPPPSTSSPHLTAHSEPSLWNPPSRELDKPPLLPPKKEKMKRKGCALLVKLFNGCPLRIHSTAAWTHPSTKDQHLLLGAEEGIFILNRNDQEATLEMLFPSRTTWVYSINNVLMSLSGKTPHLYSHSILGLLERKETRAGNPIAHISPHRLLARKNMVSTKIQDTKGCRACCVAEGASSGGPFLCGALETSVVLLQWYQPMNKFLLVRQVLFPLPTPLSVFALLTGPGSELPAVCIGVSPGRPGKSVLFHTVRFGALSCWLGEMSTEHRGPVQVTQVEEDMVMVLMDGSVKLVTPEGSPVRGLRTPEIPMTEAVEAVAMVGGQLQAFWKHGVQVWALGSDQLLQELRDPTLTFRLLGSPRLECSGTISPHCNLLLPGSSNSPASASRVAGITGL

[4] = Inhibition of arginase (unknown origin); set-up: species or system Homo sapiens
[5] = Half life in rat; format: ADME, organism-based; details: in vivo
[6] = target: T1, Arginase-2, mitochondrial (Homo sapiens, UniProt P78540); assay: Inhibition of arginase 2 (unknown origin)
T1 sequence (P78540 whole entry): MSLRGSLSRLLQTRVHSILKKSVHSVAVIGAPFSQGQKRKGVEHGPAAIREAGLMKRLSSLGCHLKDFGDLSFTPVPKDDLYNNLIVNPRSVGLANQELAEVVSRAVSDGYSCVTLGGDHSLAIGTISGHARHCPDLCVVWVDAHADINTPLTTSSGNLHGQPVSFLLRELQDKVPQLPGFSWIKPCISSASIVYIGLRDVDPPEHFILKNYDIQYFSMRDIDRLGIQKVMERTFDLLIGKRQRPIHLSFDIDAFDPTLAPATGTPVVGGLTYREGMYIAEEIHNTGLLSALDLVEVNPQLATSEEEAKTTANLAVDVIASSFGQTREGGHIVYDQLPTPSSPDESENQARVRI

Programmed cell death protein 1, sequence (Q15116 whole entry, the tested form may be a part): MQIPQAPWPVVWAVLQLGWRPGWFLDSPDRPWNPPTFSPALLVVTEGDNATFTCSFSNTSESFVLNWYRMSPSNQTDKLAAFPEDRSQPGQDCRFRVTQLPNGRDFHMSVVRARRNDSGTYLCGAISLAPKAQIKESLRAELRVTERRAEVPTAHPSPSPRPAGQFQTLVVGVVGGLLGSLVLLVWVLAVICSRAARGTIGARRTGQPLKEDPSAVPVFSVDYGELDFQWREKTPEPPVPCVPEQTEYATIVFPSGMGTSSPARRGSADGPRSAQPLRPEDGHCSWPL

SMILES: C[C@H](O)[C@H](NC(=O)N[C@@H](CC(N)=O)c1nnc([C@@H](N)CO)s1)C(=O)O
- IC50 [1]: < 50 nM

- IC50 (eIF-2-alpha kinase GCN2): 300 to 3000 nM
- IC50 [2]: 100 to 300 nM
SMILES: CC(C)C1(O)C(=O)Nc2cc(Nc3nc4c(-c5cnn(C)c5)nccn4n3)ccc21 (stereo not given)

- IC50 (eIF-2-alpha kinase GCN2): < 300 nM
SMILES: O[C@H]1CC[C@H](n2cc(Nc3ncc4nnn(-c5ccc(Cl)c(F)c5)c4n3)cn2)CC1

- IC50 [3]: < 50 nM
SMILES: CN1CCN(c2ccc3nc(-c4c(N)c5sccc5[nH]c4=O)[nH]c3c2)CC1

- IC50 [3]: < 50 nM
SMILES: CN1CCN(c2ccc3[nH]c(-c4c(N)c5ccsc5[nH]c4=O)nc3c2)CC1

SMILES: COc1cc(OCc2cccc(-c3ccccc3)c2C)cc(OC)c1CNCC1CC(=O)N1 (stereo not given)
- IC50 [1]: < 50 nM

- IC50 [4]: 98 nM
SMILES: C[C@H](N)C(=O)N1C[C@H](CCCB(O)O)[C@](N)(C(=O)O)C1

- half-life [5]: 15 to 30 min
- Ki [6]: 51 nM
SMILES: N=C(NO)NCC[C@H](N)C(=O)O [NOR-NOHA]

— ChEMBL document CHEMBL4184111, “Small molecule immuno-oncology therapeutic agents” (Bioorg Med Chem Lett, 2018)
